Assay results published in patent US11130756B2, “[1,2,4]Triazolo[4,3-A]pyridinyl substituted indole compounds” (BRISTOL-MYERS SQUIBB COMPANY, priority 2017, dated 2021).

How the values were obtained:
Type in all cases: cell-based
human TLR7 = target: T1, human TLR7 (Homo sapiens, UniProt Q9NYK1); test: TLR7 inhibition reporter assay (HEK-Blue, SEAP); conditions: HEK-Blue cells overexpressing human TLR7, gardiquimod 7.5 μM, 22 hour incubation
T1 construct: host or cells: HEK-Blue cells
T1 sequence (Q9NYK1 27-1049): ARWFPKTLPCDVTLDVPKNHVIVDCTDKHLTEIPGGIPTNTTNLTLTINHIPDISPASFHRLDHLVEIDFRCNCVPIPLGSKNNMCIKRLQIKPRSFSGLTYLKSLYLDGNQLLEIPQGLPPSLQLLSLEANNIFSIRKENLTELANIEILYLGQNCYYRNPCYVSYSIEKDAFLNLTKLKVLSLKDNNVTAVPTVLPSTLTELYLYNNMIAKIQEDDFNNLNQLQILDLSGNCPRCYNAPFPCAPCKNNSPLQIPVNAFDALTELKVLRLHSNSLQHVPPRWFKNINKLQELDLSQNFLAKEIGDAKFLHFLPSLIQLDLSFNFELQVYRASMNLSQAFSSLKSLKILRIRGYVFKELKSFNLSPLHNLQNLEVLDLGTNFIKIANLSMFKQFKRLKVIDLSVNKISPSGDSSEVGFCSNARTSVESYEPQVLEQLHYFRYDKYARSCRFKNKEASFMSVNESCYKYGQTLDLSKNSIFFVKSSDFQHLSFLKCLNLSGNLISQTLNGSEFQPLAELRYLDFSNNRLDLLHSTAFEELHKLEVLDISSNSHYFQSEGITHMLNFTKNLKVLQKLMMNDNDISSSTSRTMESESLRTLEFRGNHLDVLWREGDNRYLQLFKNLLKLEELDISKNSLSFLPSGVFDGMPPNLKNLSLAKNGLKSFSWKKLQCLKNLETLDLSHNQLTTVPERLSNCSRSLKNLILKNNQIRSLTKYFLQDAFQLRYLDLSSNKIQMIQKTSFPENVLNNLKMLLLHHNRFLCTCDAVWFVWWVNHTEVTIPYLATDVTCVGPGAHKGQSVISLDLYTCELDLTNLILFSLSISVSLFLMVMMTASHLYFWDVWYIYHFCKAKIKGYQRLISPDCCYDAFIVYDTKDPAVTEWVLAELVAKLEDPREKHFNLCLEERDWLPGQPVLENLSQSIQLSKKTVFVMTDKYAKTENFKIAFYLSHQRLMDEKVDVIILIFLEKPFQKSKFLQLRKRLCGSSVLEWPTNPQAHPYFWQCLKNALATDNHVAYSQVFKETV
Outline: (§1)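 Dose–response from 0.05 nM to 50 μM was run in HEK-Blue human TLR7, TLR8 and TLR9 reporter cells. After 30 min at room temperature with compound, ligand was added (TLR7 gardiquimod 7.5 μM; TLR8 R848 15.9 μM; TLR9 ODN2006 5 nM) and SEAP measured next day, at 22 h.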

human TLR8 = target: T2, human TLR8 (Homo sapiens, UniProt Q9NR97); test: TLR8 inhibition reporter assay (HEK-Blue, SEAP); conditions: HEK-Blue cells overexpressing human TLR8, R848 15.9 μM, 22 hour incubation
T2 construct: host or cells: HEK-Blue cells
T2 sequence (Q9NR97 27-1041): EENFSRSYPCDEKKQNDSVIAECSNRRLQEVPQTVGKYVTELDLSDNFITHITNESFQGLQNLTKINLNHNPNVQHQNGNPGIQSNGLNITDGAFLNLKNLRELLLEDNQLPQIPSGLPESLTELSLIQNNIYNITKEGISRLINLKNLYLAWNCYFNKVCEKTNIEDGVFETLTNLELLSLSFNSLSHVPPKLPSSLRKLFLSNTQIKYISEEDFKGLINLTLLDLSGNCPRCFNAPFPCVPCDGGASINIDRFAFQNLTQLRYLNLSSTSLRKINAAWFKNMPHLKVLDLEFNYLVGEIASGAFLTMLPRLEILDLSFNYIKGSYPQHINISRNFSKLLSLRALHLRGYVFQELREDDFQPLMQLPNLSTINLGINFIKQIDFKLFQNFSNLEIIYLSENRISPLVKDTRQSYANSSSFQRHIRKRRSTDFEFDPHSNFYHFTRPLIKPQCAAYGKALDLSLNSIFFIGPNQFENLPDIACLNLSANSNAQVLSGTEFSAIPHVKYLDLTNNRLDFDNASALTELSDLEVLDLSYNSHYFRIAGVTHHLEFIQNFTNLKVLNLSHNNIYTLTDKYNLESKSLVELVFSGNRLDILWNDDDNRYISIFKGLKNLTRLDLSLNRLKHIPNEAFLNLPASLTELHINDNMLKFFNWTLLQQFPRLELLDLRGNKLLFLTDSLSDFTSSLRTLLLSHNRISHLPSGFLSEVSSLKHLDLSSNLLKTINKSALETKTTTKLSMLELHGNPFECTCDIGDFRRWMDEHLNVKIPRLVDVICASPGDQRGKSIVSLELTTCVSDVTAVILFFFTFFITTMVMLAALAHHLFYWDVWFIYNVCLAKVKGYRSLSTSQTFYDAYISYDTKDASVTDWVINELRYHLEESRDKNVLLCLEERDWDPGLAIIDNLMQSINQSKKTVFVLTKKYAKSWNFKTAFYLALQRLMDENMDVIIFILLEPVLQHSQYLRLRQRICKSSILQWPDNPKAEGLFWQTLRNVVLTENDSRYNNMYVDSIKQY
Outline: as §1

human TLR9 = target: T3, human TLR9 (Homo sapiens, UniProt Q9NR96); test: TLR9 inhibition reporter assay (HEK-Blue, SEAP); conditions: HEK-Blue cells overexpressing human TLR9, ODN2006 5 nM, 22 hour incubation
T3 construct: host or cells: HEK-Blue cells
T3 sequence (Q9NR96 26-1032): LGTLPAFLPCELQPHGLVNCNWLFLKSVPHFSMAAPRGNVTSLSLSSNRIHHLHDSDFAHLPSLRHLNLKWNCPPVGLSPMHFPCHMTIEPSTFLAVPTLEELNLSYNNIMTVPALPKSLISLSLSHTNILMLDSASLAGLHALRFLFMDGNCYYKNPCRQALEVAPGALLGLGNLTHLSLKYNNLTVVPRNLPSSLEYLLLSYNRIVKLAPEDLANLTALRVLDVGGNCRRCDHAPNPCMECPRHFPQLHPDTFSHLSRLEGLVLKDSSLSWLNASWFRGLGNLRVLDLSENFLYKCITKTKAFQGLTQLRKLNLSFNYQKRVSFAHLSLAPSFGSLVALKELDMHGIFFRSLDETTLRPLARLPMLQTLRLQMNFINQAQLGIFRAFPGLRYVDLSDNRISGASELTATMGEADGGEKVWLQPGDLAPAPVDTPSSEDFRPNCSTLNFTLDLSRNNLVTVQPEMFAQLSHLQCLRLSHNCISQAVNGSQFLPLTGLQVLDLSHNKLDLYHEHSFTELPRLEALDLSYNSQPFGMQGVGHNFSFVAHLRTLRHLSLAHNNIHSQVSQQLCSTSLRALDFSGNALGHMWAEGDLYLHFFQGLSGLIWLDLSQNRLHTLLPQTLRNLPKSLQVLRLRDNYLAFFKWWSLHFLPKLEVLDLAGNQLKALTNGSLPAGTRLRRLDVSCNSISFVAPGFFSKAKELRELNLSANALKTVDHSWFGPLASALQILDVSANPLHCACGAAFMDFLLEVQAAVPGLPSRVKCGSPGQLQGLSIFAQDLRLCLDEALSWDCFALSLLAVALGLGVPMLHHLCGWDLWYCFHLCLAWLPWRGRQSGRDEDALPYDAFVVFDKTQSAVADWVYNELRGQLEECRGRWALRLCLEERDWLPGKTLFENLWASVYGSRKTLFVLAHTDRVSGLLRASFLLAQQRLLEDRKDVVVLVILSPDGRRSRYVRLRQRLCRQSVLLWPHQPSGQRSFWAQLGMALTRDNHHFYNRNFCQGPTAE
Outline: as §1

IC50 (human TLR7) | IC50 (human TLR8) | IC50 (human TLR9) | Compound
0.0015 µM | 0.0058 µM | 1.28 µM | Cc1c(-c2[nH]c3ccc(C4CCN(CCN5CCCS5(=O)=O)CC4)cc3c2C(C)C)cn2cnnc2c1C [Example 52, 2-(2-(4-(2-(7,8-dimethyl-[1,2,4]triazolo[4,3-a]pyridin-6-yl)-3-isopropyl-1H-indol-5-yl)piperidin-1-yl)ethyl)isothiazolidine 1,1-dioxide]
0.0009 µM | 0.0101 µM | 0.565 µM | Cc1c(-c2[nH]c3ccc(C4CCN(CCN5CCCS5(=O)=O)CC4)cc3c2C(C)C)cn2cnnc2c1Cl [Example 53, 2-(2-(4-(2-(8-chloro-7-methyl-[1,2,4]triazolo[4,3-a]pyridin-6-yl)-3-isopropyl-1H-indol-5-yl)piperidin-1-yl)ethyl) isothiazolidine 1,1-dioxide]
0.0019 µM | 0.0195 µM | 0.099 µM | COc1cc(-c2[nH]c3ccc(C4CCN(CC(=O)N(C)C)CC4)cc3c2C(C)C)cn2cnnc12 [Example 54, 2-(4-(3-isopropyl-2-(8-methoxy-[1,2,4]triazolo[4,3-a]pyridin-6-yl)-1H-indol-5-yl)piperidin-1-yl)-N,N-dimethylacetamide]
0.0009 µM | 0.0106 µM | 1.1 µM | COc1cc(-c2[nH]c3ccc(C4CCN(CCCC(F)(F)F)CC4)cc3c2C(C)C)cn2cnnc12 [Example 55, 6-(3-isopropyl-5-(1-(4,4,4-trifluorobutyl)piperidin-4-yl)-1H-indol-2-yl)-8-methoxy-[1,2,4]triazolo[4,3-a] pyridine]
0.0005 µM | 0.0079 µM | 0.196 µM | Cc1c(-c2[nH]c3ccc(C4CCN(CCN5CCOC5=O)CC4)cc3c2C(C)C)cn2cnnc2c1C [Example 56, 3-(2-(4-(2-(7,8-dimethyl-[1,2,4]triazolo[4,3-a]pyridin-6-yl)-3-isopropyl-1H-indol-5-yl)piperidin-1-yl)ethyl)oxazolidin-2-one]
0.005 µM | 0.013 µM | 1.3 µM | Cc1c(-c2[nH]c3ccc(C4CCN(CCN5CCCC5=O)CC4)cc3c2C(C)C)cn2cnnc2c1C [Example 57, 1-(2-(4-(2-(7,8-dimethyl-[1,2,4]triazolo[4,3-a]pyridin-6-yl)-3-isopropyl-1H-indol-5-yl)piperidin-1-yl)ethyl) pyrrolidin-2-one]
0.0008 µM | 0.0009 µM | 1.75 µM | Cc1cc(-c2[nH]c3ccc(C4CCN(CC(C)(C)O)CC4)cc3c2C(C)C)cn2cnnc12 [Example 58, 1-(4-(3-isopropyl-2-(8-methyl-[1,2,4]triazolo[4,3-a]pyridin-6-yl)-1H-indol-5-yl)piperidin-1-yl)-2-methylpropan-2-ol]
0.0817 µM | 0.0031 µM | 3.43 µM | Cc1cc(-c2[nH]c3ccc(C4CCN(CC(C)(C)O)CC4)cc3c2C(C)C)c(C)n2cnnc12 [Example 59, 1-(4-(2-(5,8-dimethyl-[1,2,4]triazolo[4,3-a]pyridin-6-yl)-3-isopropyl-1H-indol-5-yl)piperidin-1-yl)-2-methylpropan-2-ol]
0.0017 µM | 0.0043 µM | 2.9 µM | Cc1c(-c2[nH]c3ccc(C4CCN(CC(C)(C)O)CC4)cc3c2C(C)C)cn2cnnc2c1C [Example 60, 1-(4-(2-(7,8-dimethyl-[1,2,4]triazolo[4,3-a]pyridin-6-yl)-3-isopropyl-1H-indol-5-yl)piperidin-1-yl)-2-methylpropan-2-ol]
0.0009 µM | 0.0046 µM | 2.27 µM | Cc1c(-c2[nH]c3ccc(C4CCN(CC(C)(C)O)CC4)cc3c2C(C)C)cn2cnnc2c1Cl [Example 61, 1-(4-(2-(8-chloro-7-methyl-[1,2,4]triazolo [4,3-a]pyridin-6-yl)-3-isopropyl-1H-indol-5-yl)piperidin-1-yl)-2-methylpropan-2-ol]
0.0017 µM | 0.0076 µM | 10.8 µM | Cc1cc(-c2[nH]c3ccc(C4CCN(C5COC5)CC4)cc3c2C(C)C)cn2cnnc12 [Example 63, 6-(3-isopropyl-5-(1-(oxetan-3-yl)piperidin-4-yl)-1H-indol-2-yl)-8-methyl-[1,2,4]triazolo[4,3-a]pyridine]
0.0247 µM | 0.147 µM | 0.677 µM | CC(C)c1c(-c2ccc3nncn3c2)[nH]c2ccc(C3CCN(C4CCOCC4)CC3)cc12 [Example 64, 6-(3-isopropyl-5-(1-(tetrahydro-2H-pyran-4-yl)piperidin-4-yl)-1H-indol-2-yl)-[1,2,4]triazolo[4,3-a]pyridine]
0.0218 µM | 0.341 µM | 15.1 µM | CC(C)c1c(-c2ccc3nncn3c2)[nH]c2ccc(C3CCN(C4COC4)CC3)cc12 [Example 65, 6-(3-isopropyl-5-(1-(oxetan-3-yl)piperidin-4-yl)-1H-indol-2-yl)-[1,2,4]triazolo[4,3-a]pyridine]
0.0555 µM | 1.03 µM | 18.6 µM | Cc1cc2nncn2cc1-c1[nH]c2ccc(C3CCN(C4COC4)CC3)cc2c1C(C)C [Example 66, 6-(3-isopropyl-5-(1-(oxetan-3-yl)piperidin-4-yl)-1H-indol-2-yl)-7-methyl-[1,2,4]triazolo[4,3-a]pyridine]
